# Laboratory results: paper PMC10833116 (Journal of Enzyme Inhibition and Medicinal Chemistry, 2024)
# Test system: adult female Wistar rats
# Assay: Gastric ulcerogenic activity
# Format: in vivo, rat
# Conditions: fasted rats
row,SMILES,"Gastric ulcerogenic potential, gross examination"
1,"Cc1ccc(-c2cc(C(F)(F)F)nn2-c2ccc(S(N)(=O)=O)cc2)cc1 [Celecoxib, celecoxib, reference compound]",no ulceration
2,"Cc1ccc(C(C)C)c(O)c1C=NN=c1scc(-c2ccccc2)n1-c1ccccc1 [Compound 6a, 2-((2-Hydroxy-3-isopropyl-6-methylbenzylidene)hydrazono)-3,4-diphenyl-2,3-dihydrothiazole]",no ulceration
3,"Cc1ccc(C(C)C)c(O)c1C=NN=c1scc(-c2ccccc2)n1-c1ccccc1Cl [Compound 6b, 2-((2-Hydroxy-3-isopropyl-6-methylbenzylidene)hydrazono)-3-(2-chlorophenyl)-4-phenyl-2,3-dihydrothiazole]",no ulceration
4,"Cc1ccc(C(C)C)c(O)c1C=NN=c1scc(-c2ccc(Br)cc2)n1-c1ccccc1Cl [Compound 6f, 2-((2-Hydroxy-3-isopropyl-6-methylbenzylidene)hydrazono)-3-(2-chlorophenyl)-4-(4-bromophenyl)-2,3-dihydrothiazole]",no ulceration
5,"O=C(O)Cc1ccccc1Nc1c(Cl)cccc1Cl [Diclofenac sodium, diclofenac sodium, reference compound]",no ulceration
